In experiment [1] the test system is delayed rectifier K^+ channel. Kind of experiment: whole-cell patch clamp, delayed rectifier K^+ channel (steady-state outward K^+ current at +40 mV) in rat fungiform taste receptor cells. Format: cell-based, rat (Sprague-Dawley). Conditions: for effect on outward K^+ currents, specificity test: 10 μM, >10 min (maximal effect), significance by paired t test; for stimulation of taste receptor cells: summary statement. An excerpt:
(§1) The effects of free fatty acids ("FFAs") on taste buds isolated from rat fungiform papillae were examined to determine if a chemosensory (i.e. non-textural) cue for fats is located in the mouth. The methods used to isolate TRCs were generally as described in Behe et al., "Membrane Currents in Taste Cells of the Rat Fungiform Papilla: Evidence for Two Types of Ca Currents and Inhibition of K Currents by Saccharin," Journal of General Physiology, Vol. 96, pp. 1061-1084 (1990); Doolin et al., "Distribution and Characterization of Functional Amiloride-sensitive Sodium Channels in Rat Tongue," Journal of General Physiology, Vol. 107. pp. 545-554 (1996); and Gilbertson et al., "Proton Currents Through Amiloride-sensitive Na^+ Channels in Isolated Hamster Taste Cells: Enhancement by Vasopressin and cAMP," Neuron, Vol. 10, pp. 931-942 (1993).
(§2) Individual fungiform taste buds were isolated from the tongues of 2- to 5-month-old male Sprague-Dawley rats (Harlan Sprague Dawley, Indianapolis,Ind.). Animals were housed individually in polycarbonate cages with food (Purina #5001, Purina Mills, St. Louis, Mo.) provided ad lib. The room containing the rats was maintained at 21-23° C. on a 0700-1900 h light-dark cycle. All animal care and experimental procedures were in accordance with National Institutes of Health guidelines, and were approved by the Institutional Animal Care and Use Committee of the Pennington Biomedical Research Center.
(§3) Tongues were removed from euthanized rats, and were immediately placed in ice-cold Tyrode's solution. To remove the lingual epithelium containing the taste buds from the underlying muscle layer, approximately 1.0 ml of Tyrode's solution containing 0.3 mg/ml collagenase A (Boehringer Mannheim Corp., Indianapolis, Ind.), 2.5 mg/ml dispase (grade II; Boehringer Mannheim) and 1.0 mg/ml trypsin inhibitor (type I-S; Sigma Chemical Co., St. Louis, Mo.) was injected below the epithelium. The injected tongue was placed in Ca--Mg free Tyrode's solution and bubbled with O2 for 33-35 min. The lingual epithelium was removed and pinned serosal side up, allowing access to the taste buds. Fungiform taste buds were removed individually by gentle suction with a large, firepolished pipette (~200 μm diameter), and were plated onto Cell-Tak™-coated microscope slides (Collaborative Biomedical Prod., Bedford, Mass.) fitted with an O-ring which served as a recording chamber. Once plated, cells were perfused continually with Tyrode's or various test solutions. Taste buds isolated in this manner were used for up to 6 hours without any noticeable morphological or physiological decrement.
(§4) All chemicals were obtained from Sigma Chemical Corporation (St. Louis, Mo.) unless otherwise indicated. Normal extracellular solution (Tyrode's) contained (in mM): NaCl, 140; KCl, 5; CaCl2, 1; MgCl2, 1; HEPES (N-[2-hydroxyethyl] piperazine-N'-[2-ethanesulfonic acid), 10; glucose, 10; and sodium pyruvate, 10. The pH was adjusted to 7.40 with NaOH. In Ca^2+ --Mg^2+ free Tyrode's solution, 2 mM BAPTA (1,2-bis(2-aminophenoxy) ethane-N,N,N',N'-tetraacetic acid) (Molecular Probes, Eugene, Oreg.) replaced CaCl2 and MgCl2. Other components were identical to Tyrode's solution. Intracellular (pipette) solution contained (in mM): KCl, 140; CaCl2, 1 [free Ca^2+ was ~10^-8 M]; MgCl2, 2; HEPES, 10; EGTA (ethylene glycol-bis(β-aminoethylether)-N,N,N',N'-tetraacetic acid), 11; and ATP, 3. The pH was adjusted to 7.20 with KOH.
(§5) Free fatty acids (FFAs) were stored below -20° C. until the day of use, when they were dissolved in warm ethanol and diluted to final working concentrations in Tyrode's solution. Final ethanol concentrations in Tyrode's were below 0.1%; the ethanol had no effect on ionic currents in any TRCs. All FFAs were applied by bath perfusion. In some experiments, FFA-containing solutions were bubbled continuously with nitrogen to retard oxygenation. […]
(The patch-clamp technique gives a direct electrical read-out from membranes.)

In experiment [2] the test system is outward K^+ currents in rat fungiform taste receptor cells. Kind of experiment: whole-cell patch clamp, total outward voltage-activated currents in rat fungiform taste receptor cells. Format: cell-based, rat (Sprague-Dawley).
Description: as §1
Individual fungiform taste buds were isolated from the tongues of 2- to 5-month-old male Sprague-Dawley rats (Harlan Sprague Dawley, Indianapolis,Ind.). Animals were housed individually in polycarbonate cages with food (Purina #5001, Purina Mills, St. Louis, Mo.) provided ad lib. The room containing the rats was maintained at 21-23° C. on a 0700-1900 h light-dark cycle. […]

For experiment [3], the system named is delayed rectifying K^+ channels. Nature of the experiment: patch clamp, delayed rectifying K^+ channels of TRCs isolated from Osborne-Mendel rats. The class given is cell-based. An excerpt: (§6) To determine if there is a link between the sensitivity of TRCs to PUFAs and dietary fat preferences, the PUFA-sensitivities of TRCs using patch clamp techniques were compared on TRCs isolated from Osborne-Mendel ("O-M") rats and S5B/P1 rats, strains with different dietary preferences. O-M rats prefer fat over carbohydrate, while S5B/P1 rats prefer carbohydrate over fat. […] Rats whose TRCs were more sensitive to the fatty acids have a preference for a lower-fat diet; while rats whose TRCs are less sensitive to fatty acids seek diets that are higher in fat.

Experiment [4] has the same test system. Nature of the experiment: patch clamp, delayed rectifying K^+ channels of TRCs isolated from S5B/P1 rats. The conditions noted are these: for inhibition of the delayed rectifying K^+ channels, S5B/P1 rats: TRCs from S5B/P1 rats; for sensitivity of S5B/P1 TRCs to inhibition compared with O-M TRCs: 10 μM, versus TRCs from O-M rats. The class given is cell-based.
Description: as §6

The subject of experiment [5] is rat fungiform taste receptor cells. Kind of experiment: current clamp, stimulus-induced depolarization of rat fungiform taste receptor cells. Format: cell-based, rat (Sprague-Dawley). As to the method: Voltage-activated currents were recorded from individual taste receptor cells maintained in the taste bud using the whole-cell patch clamp configuration, as generally described in Hamill et al., "Improved Patch-clamp Techniques for High-resolution Current Recording from Cells and Cell-free Membrane Patches," Pflugers Arch., Vol. 391, pp. 85-100 (1981). Patch pipettes were made by pulling mlcrohematocrit tubes (Scientific Products, McGaw Park, Ill.) on a Flaming/Brown micropipette puller (model P-97; Sutter Instrument Co., Novato, Calif.), and subsequently firepolishing on a microforge (model MF-9; Narishige, Tokyo) to a resistance between 5 and 10 M.OMEGA. when filled with intracellular solution.
Since arachidonic acid and linoleic acid inhibit K^+ currents in TRCs and these channels play crucial roles in repolarizing the cells following activity, the presence of such FFAs should affect how these cells respond during stimulus-induced activity. This prediction was tested in cells in current clamp mode during perfusion of saline, both in the absence and presence of 10 μM linoleic acid. In response to current injection (+18 pA), TRCs typically fired 0-3 action potentials, followed by a sustained depolarization lasting as long as the stimulus was present. […] On average, the sustained depolarization during current injection (18 pA) in the rat fungiform taste receptor cells was 22.4±8.5 mV during perfusion of physiological saline (n=7 cells). Addition of 10 μM linoleic acid to the perfusate of the same cells increased the mean voltage response to 36.8±9.2 mV (n=7), an increase of 64%.

Experiment [6] concerns inwardly rectifying K^+ channels (Kir). Kind of experiment: whole-cell patch clamp, inwardly rectifying K^+ channels (Kir) at -130 mV in rat fungiform taste receptor cells. The class given is cell-based, rat (Sprague-Dawley). The conditions noted are these: n=5 cells.
Description: as §1, §2, §3, §4, §5

“Also recorded” adds a separate entry of the source.

For `O=S(=O)(c1cccc2cnccc12)N1CCNCC1` [HA-100, reference compound], the “effect of PKC/PKA inhibitor on linoleic acid-induced inhibition of outward K^+ currents” value in experiment [1] (25 μM, intracellular, n=6 cells) is listed as “did not prevent linoleic acid-induced inhibition of outward K^+ currents”.

With `CCCCC/C=C\C/C=C\C/C=C\C/C=C\CCCC(=O)OC` [arachidonic acid methyl ester], the “modulation of TRC K^+ currents by esterified fatty acid” value in experiment [2] (arachidonic acid methyl ester: n=5 cells) is listed as “ineffective”.

On to `CCCCCCCC/C=C\CCCCCCCCCCCC(=O)O` [erucic acid, reference compound], for which the “effect on outward K^+ currents, specificity test” value (“effect … specificity test” below) in experiment [1] is “did not have significant effects”.

Turning to `Nc1nc2c(ncn2[C@@H]2O[C@H](COP(=O)(O)OP(O)(O)=S)[C@@H](O)[C@H]2O)c(=O)[nH]1` [guanosine 5'-O-(2-thiodiphosphate), reference compound], the “effect of G protein inhibitor on FFA effects on outward currents” value in experiment [1] (0.5 mM in the patch pipette, n=5) is “did not inhibit the effects of FFA on outward currents”.

For `CCCCCCCCCCCC(=O)O` [lauric acid, reference compound], the “inhibition of the delayed rectifying K^+ channels, O-M rats” value (shortened to “inhibition … O-M rats”) in experiment [3] was “ineffective”. For the same molecule, in experiment [4], the “inhibition of the delayed rectifying K^+ channels, S5B/P1 rats” value (shortened to “inhibition … S5B/P1 rats”) is listed as “ineffective”.

Regarding `CCCCC/C=C\C/C=C\CCCCCCCC(=O)O` [linoleic acid], the “effect of intracellular application on outward K^+ currents” value in experiment [1] (10 μM in the pipette (intracellular) solution, up to 30 min or more) is listed as “no effect”. In experiment [1], the “effect … specificity test” value is “significantly reduced outward K^+ currents” and the “stimulation of taste receptor cells” value was “stimulate taste receptor cells”. The “effect on outward K^+ currents on subsequent extracellular addition” value in experiment [1] (linoleic acid also in pipette, added extracellularly, n=11 cells) was “outward K^+ currents were inhibited”. Further, the “inhibition of outward K^+ currents in metyrapone-treated TRCs” value in experiment [1] (metyrapone 1 mM, 15 min, n=6 cells) was “still inhibited by linoleic acid in a quantitatively similar fashion”. In addition, the “relative potency among the FFAs tested” value in experiment [1] (trend in effects on both types of K^+ currents) is listed as “the most potent of the FFAs tested”. Moreover, the “inhibition … O-M rats” value in experiment [3] is given as “inhibited the delayed rectifying K^+ channels in a concentration-dependent manner”. In addition, the “effect on stimulus-induced depolarization (in words)” value in experiment [5] (10 μM linoleic acid) is “significantly enhanced stimulus-induced depolarization of TRCs; also recorded: increase in the magnitude of stimulus-induced depolarization of taste receptor cells; also recorded: prolonged "tail" potential following termination of the stimulus”. Further, the “sustained depolarization during current injection (mean voltage response)” value in experiment [5] (10 μM linoleic acid, 18 pA, n=7 cells, saline 22.4±8.5 mV) is reported as 36.8±9.2 mV. Further, the activation at 10 µM in experiment [5] (Rattus norvegicus, 10 μM, 18 pA, n=7, read-out: increase of mean voltage response over saline) is 64%. Also, in experiment [4], the “sensitivity of S5B/P1 TRCs to inhibition compared with O-M TRCs” value is listed as “significantly more sensitive to inhibition” and the “inhibition … S5B/P1 rats” value is on record as “inhibited the delayed rectifying K^+ channels in a concentration-dependent manner”.

On to `CCCCC/C=C/C/C=C/CCCCCCCC(=O)O` [linolelaidic acid, reference compound], for which the “effect … specificity test” value is given as “did not significantly affect outward K^+ currents” in experiment [1] and “no effect on outward K^+ currents” in experiment [1] (listed as linolelaidic).

For `CC/C=C/C/C=C/C/C=C/CCCCCCCC(=O)O` [linolenelaidic acid, reference compound], the “effect … specificity test” value in experiment [1] is “no effect on outward K^+ currents; also recorded: did not significantly affect outward K^+ currents”.

In general, inhibition refers to the percentage by which the read-out fell short of the control. Consider `CC(C)(C(=O)c1cccnc1)c1cccnc1` [metyrapone], for which the inhibition at 1000 µM in experiment [2] (Rattus norvegicus, 1 mM, n=6 cells, read-out: inhibition of the outward current by metyrapone alone) was found to be 23.8 ± 9.7%.

`CCCCCCCC/C=C\CCCCCCCCCCCCCC(=O)O` [nervonic acid, reference compound]: the “effect … specificity test” value in experiment [1] is “did not have significant effects”.

With `CCCCCCCC/C=C\CCCCCCCC(=O)O` [oleic acid, reference compound], the “effect … specificity test” value in experiment [1] is given as “did not have significant effects”. The “enhancement of Kir” value in experiment [6] is “did not enhance Kir”.

`CCCCCC/C=C\CCCCCCCC(=O)O` [palmitoleic acid, reference compound]: the “effect … specificity test” value in experiment [1] is reported as “did not have significant effects”.

linolenic acid: in experiment [1], the “effect … specificity test” value was “significantly reduced outward K^+ currents” and the “stimulation of taste receptor cells” value was “stimulate taste receptor cells”. In addition, in experiment [3], the “inhibition … O-M rats” value is “inhibited the delayed rectifying K^+ channels in a concentration-dependent manner”. Also, in experiment [4], the “sensitivity of S5B/P1 TRCs to inhibition compared with O-M TRCs” value was “significantly more sensitive to inhibition” and the “inhibition … S5B/P1 rats” value is reported as “inhibited the delayed rectifying K^+ channels in a concentration-dependent manner”.

The values are drawn from patent publication US6166076A, “Taste enhancing food additives” (Board of Supervisors of Louisiana State University and …, priority 1997, dated 2000).
